From EPA's ToxValDB 9.5 (doi:10.2903/j.efsa.2009.193r) come the findings set out here.

In brackets after ≈: the same amount, converted by molar mass.

One data set has as its system Folsomia candida. Conditions: chronic/long-term; duration: 28 days; mortality.
The test system of another data set is Tagia sp. Conditions: acute; duration: 14 days; mortality.
Another data set deals with Lepomis macrochirus. As to conditions: acute; duration: 96 hours; mortality.
The test system of the next data set is Anas platyrhynchos. Conditions: short-term; oral; feed; mortality.
For another data set, the system named is Apis mellifera. Conditions: acute; duration: 48 hours; dermal; mortality.
A further data set concerns Aphidius rhopalosiphi. Put plainly: LR50; higher = less toxic. As to conditions: not reported; mortality.

Turning to `[O-][n+]1nc(-n2ccnc2)nc2ccc(Cl)cc21` [Triazoxide], the NOEC with Folsomia candida turned out to be 500 mg/kg; in the data set on Coturnix japonica (reproduction developmental, duration: 6 weeks) it was 11.7 mg/kg-day. For the same compound, the results for the LC50 in the data set with Tagia sp. and in the data set on Lepomis macrochirus were over 1000 mg/kg and 0.077 µg/mL (≈ 0.311 µM), respectively. For the same compound, the LD50 is 98 mg/kg-day in the data set with Rattus norvegicus (acute, oral, mortality); 268 mg/kg-day in the data set on Anas platyrhynchos; 90 mg/kg-day with Coturnix japonica (acute, oral, mortality); over 200 µg/piece with Apis mellifera. This compound came in with an LOAEL with Rattus norvegicus (chronic, duration: 2 years, oral, diet, hematological) of 0.05 mg/kg-day. For the same compound, the NOAEL came to 0.11 mg/kg-day in the data set on Rattus norvegicus (reproduction developmental, organ weight); 2.04 mg/kg-day in the data set with Rattus norvegicus (reproduction developmental, reproduction); 1.5 mg/kg-day in the data set on Rattus norvegicus (short-term, duration: 28 days, oral, hematological); 0.21 mg/kg-day in the data set with Rattus norvegicus (subchronic, duration: 90 days, oral, hematological). In the data set with Aphidius rhopalosiphi, this compound showed an LR50 of over 5.13 g/ha.
